Source: paper PMC7370100, “In Vitro Assessment of the Genotoxic Hazard of Novel Hydroxamic Acid- and Benzamide-Type Histone Deacetylase Inhibitors (HDACi)” (International Journal of Molecular Sciences, 2020)
Where two headings read alike, the source gives them in different places.

Legend:
[1] = tested on: IMR-32 neuroblastoma cells; assay: Alamar blue assay (cell viability), IMR-32 cells; type: cell-based, human
Description: (§1) V79 hamster lung cells, which are recommended in the OECD toxicology guidelines for hazard identification (i.e., cytotoxicity and genotoxicity) of chemicals, were purchased from the German Collection of Microorganisms and Cell Cultures (DSMZ, Braunschweig, Germany). They were cultured in Dulbecco´s modified Eagle medium and Ham´s F12 medium (DMEM/F12) (PromoCell, Heidelberg, Germany) containing 10% fetal calf serum at 37 °C in a humidified atmosphere containing 5% CO2. VC8 hamster cells were defective in DNA double-strand break (DSB) repair by homologous recombination (HR) due to the lack of functional BRCA2 protein [69, 70]. VC8 cells were provided by B. Kaina (Institute of Toxicology, Mainz, Germany). Nucleotide excision repair defective XPA and CSB deficient cells were also provided by B. Kaina and were described before. They were grown in DMEM containing 10% fetal calf serum. Human neuroblastoma cells (IMR-32 and SH-SY5Y) were purchased from the German Collection of Microorganisms and Cell Cultures (DSMZ, Braunschweig, Germany) and were used as a model of malignant cells. They were grown in DMEM or RPMI (Roswell park memorial institute) medium, respectively, containing 10% fetal calf serum. If not stated otherwise, HDACi were added to the exponentially growing cells and analyses were performed 6 h to 72 h later.
(§2) Cell viability was determined using the Alamar blue assay, which reflected the mitochondrial activity. Viable cells were characterized by an effective mitochondrial metabolization of the non-fluorescent dye resazurin (Sigma, Steinheim, Germany) to fluorescent resorufin (excitation: 535 nm, emission: 590 nm). Relative viability in the untreated control was set to 100%. In addition, the Neutral red assay, which measures the integrity of lysosomal membranes, was used to monitor cytotoxicity. To this end, cells were incubated with the Neutral red solution (0.01%) in an atmosphere containing 5% CO2 for 90 min before they were fixed (1% formaldehyde/1% CaCl2). Afterwards, the Neutral red that was taken up by the cells was extracted (50% ethanol/1% of acetic acid, 15 min at room temperature (RT)) and absorbance (540 nm) was measured. If not stated otherwise, data are shown as the mean ± standard deviation (SD) of two to three independent experiments each performed in quadruplicate. Approximate IC50 (~IC50, see Supplementary Table S1) were calculated from the corresponding dose-response curves.

[2] = tested on: SH-SY5Y neuroblastoma cells; assay: Neutral red assay (cytotoxicity), SH-SY5Y cells; type: cell-based, human
Description: as §1, §2

[3] = tested on: V79 cells; assay: Alkaline comet assay (DNA strand breaks); settings: for Mean (% DNA in tail) / DNA strand breaks (comet assay): 24 h; for Mean (% DNA in tail) / Comet Assay: V79; for Mean (% DNA in tail): untreated control 16.8; for DNA strand breaks (comet assay): V79, in words; for Comet Assay: summary grade
Description: The formation of DNA strand breaks and apurinic/apyrimidinic sites was monitored employing the alkaline comet assay [87], which is part of the OECD guideline of in vivo genotoxicity testings and detects DNA strand breaks (DNA single- and double-strand breaks) and alkali-labile sites [87]. Briefly, after aspiration of the medium and trypsinization, cells were mixed with 0.5% melting agarose and transferred onto agarose-coated (1.5%) slides. After lysis in alkaline buffer (pH 10) (1 h, 4 °C, light protection) and unwinding of the DNA in precooled lysis buffer (pH >13) (20 min, 4 °C, light protection), electrophoresis was performed (electric current: 300 mA constant; 1 V/cm). After neutralization in salt buffer (pH 7.5) and staining with propidium iodide solution (50 µg/mL), comets were evaluated by fluorescence microscopy. Quantification of migrated DNA was performed with TriTek Comet Score™ software Version 1.5, evaluating ≥50 cells per condition (blinded assessment). […] Fold increase in tail intensities of treated cells were calculated by relating the % DNA in tail of treated cells to that of the corresponding untreated controls, which were set to 1.0 (see Figure 2B).

[4] = tested on: SH-SY5Y neuroblastoma cells; assay: Alamar blue assay (cell viability), SH-SY5Y cells; type: cell-based, human
Description: as §1, §2

[5] = tested on: V79 cells; assay: Caspase-3/-7 cleavage by Western blot (apoptosis); type: cell-based, hamster; settings: for activation of caspase-3 and -7: 10 µM, 24 h, V79, in words; for Apoptosis: summary grade, calculated on the basis of caspase-3,-7 cleavage and SubG1 population, V79; as to apoptosis: key: −: no effect; 0: weak effect; +: moderate effect; ++: strong effect; +++: very strong effect as compared to untreated controls
Description: The activation of the DDR was investigated by Western blot analysis. To this end, total cell extracts were obtained by lysing an equal number of cells in Roti®-Load buffer (Carl Roth GmbH (Karlsruhe, Germany)) (5 min, RT). After sonication (EpiShear™ Probe sonicator, Active Motif, La Hulpe, Belgium), proteins were denatured by heating (5 min, 95 °C) and separated by SDS-PAGE (6% or 12.5% gel). Proteins were transferred onto a nitrocellulose membrane (GE Healthcare, Little Chalfont, UK) via the Protean Mini Cell System (BioRad (München, Germany)). The membrane was blocked with 5% non-fat milk in TBS/0.1% Tween 20 (MERCK, Darmstadt, Germany) (2 h, RT) and incubated with the corresponding primary antibody (1:1000, overnight, 4 °C). After washing with TBS/0.1% Tween 20, the secondary (peroxidase-conjugated) antibody was added (1:2000, 2 h, RT). The Fusion FX7 imaging system (PeqLab, Erlangen, Germany) was used for visualization of the bound antibodies. The following primary antibodies were used: Anti-Ser15 phosphorylated protein 53 (p-p53), anti-Talin-1, anti-Ser 345 checkpoint kinase 1 (p-Chk1), anti-cleaved caspase 3 and 7 (Cell Signaling, Beverly, MA, USA), anti-Ser824 phosphorylated Krüppel-associated box domain (KRAB)-associated protein-1 (p-Kap1), anti-Ser1981 phosphorylated ataxia telangiectasia mutated (pATM) and anti-Thr68 phosphorylated checkpoint kinase-2 (p-Chk2) (both Abcam, Cambridge, MA, USA), anti-Ser139 phosphorylated histone H2AX (γH2AX, Millipore, Billerica, MA, USA), and anti-β-actin (Santa Cruz, CA, USA). As secondary antibodies, horseradish peroxidase-conjugated secondary antibodies goat anti-mouse IgG and mouse anti-rabbit IgG (Rockland, Limerick, PA, USA) (2 h, RT) were used.

[6] = tested on: V79 cells; assay: Nuclear γH2AX foci and pan-staining (immunocytochemistry); type: cell-based, hamster; settings: for > 5 < 30 Foci [%] / Pan-Stained [%] / ≤ 5 Foci [%] (cells with γH2AX foci) / ≥ 30 Foci [%] / formation of nuclear γH2AX foci: 24 h; for > 5 < 30 Foci [%] / Pan-Stained [%] / ≤ 5 Foci [%] (cells with γH2AX foci) / ≥ 30 Foci [%] / gH2AX Foci / gH2AX Pan-Stain: V79; for formation of nuclear γH2AX foci: V79, in words; for gH2AX Foci / gH2AX Pan-Stain: summary grade; as to gH2AX Foci: key: −: no effect; 0: weak effect; +: moderate effect; ++: strong effect; +++: very strong effect as compared to untreated controls; as to gH2AX Pan-Stain: key: −: no effect; 0: weak effect; +: moderate effect; ++: strong effect; +++: very strong effect as compared to untreated controls
Description: The frequency of nuclear foci formed by S139 phosphorylated H2AX (γH2AX foci), which is a surrogate marker of DNA damage, especially DNA double-strand breaks (DSBs), was assayed by immunocytochemistry-based analysis. […] The appearance of nuclear 53BP1 foci, which is another marker of DSBs, was also determined by immunocytochemistry. Cells were fixed with 4% formaldehyde in phosphate-buffered saline (PBS) (MERCK, Darmstadt, Germany) (15 min, RT) followed by incubation with ice-cold methanol (≥20 min, −20 °C). After blocking (1 h, RT, blocking solution: 5% BSA (MERCK, Darmstadt, Germany) in PBS/0.3% Triton X-100 (Sigma, Steinheim, Germany)), incubation with γH2AX antibody and 53BP1 antibody was performed (1:500, overnight, 4 °C). After incubation with the secondary fluorescence-labeled antibody (1:500, 1 h, RT, in the dark), cells were mounted in Vectashield (Vector Laboratories (Burlingame, CA, USA)) containing DAPI. The number of nuclear γH2AX and 53BP1 foci was scored (Olympus BX43 fluorescence microscope). Only nuclei with distinct foci were evaluated and γH2AX pan-stained nuclei were excluded from the foci analyses. Data are shown as the mean ± SEM of three independent experiments with ≥50 nuclei analyzed per experimental condition.

[7] = 24 h, approximate IC50, read-out: IC50 - 24 h Treatment, SH-SY5Y
[8] = 72 h, approximate IC50, read-out: IC50 - 72 h Treatment, SH-SY5Y
[9] = Homo sapiens, SH-SY5Y, 24 h, approximate IC50, read-out: IC50 - 24 h Treatment, SH-SY5Y
[10] = Homo sapiens, SH-SY5Y, 72 h, approximate IC50, read-out: IC50 - 72 h Treatment, SH-SY5Y

| SMILES | Mean (% DNA in tail) ([3]; 2 µM) | Mean (% DNA in tail) ([3]; 10 µM) | Mean (% DNA in tail) ([3]; 50 µM) | DNA strand breaks (comet assay) [3] | Comet Assay [3] | activation of caspase-3 and -7 [5] | Apoptosis [5] | > 5 < 30 Foci [%] ([6]; 2 µM) | Pan-Stained [%] ([6]; 2 µM) | ≤ 5 Foci [%] (cells with γH2AX foci) ([6]; 2 µM) | > 5 < 30 Foci [%] ([6]; 10 µM) | Pan-Stained [%] ([6]; 10 µM) | ≤ 5 Foci [%] (cells with γH2AX foci) ([6]; 10 µM) | ≥ 30 Foci [%] ([6]; 10 µM) | > 5 < 30 Foci [%] ([6]; 50 µM) | Pan-Stained [%] ([6]; 50 µM) | ≤ 5 Foci [%] (cells with γH2AX foci) ([6]; 50 µM) | ≥ 30 Foci [%] ([6]; 50 µM) | gH2AX Foci [6] | gH2AX Pan-Stain [6] | also measured |
| --- | --- | --- | --- | --- | --- | --- | --- | --- | --- | --- | --- | --- | --- | --- | --- | --- | --- | --- | --- | --- | --- |
| CN(C)c1ccc(C(=O)N(CC(=O)NCc2ccccc2)Cc2ccc(C(=O)NO)cc2)cc1 [DDK137] | 15.1 | 6.9 | 17.3 | did not cause a significant rise in DNA damage | − | activation of caspase-3 and -7 | + | 38.5 | 0.0 | 60.8 | 40.1 | 0.0 | 56.4 | 3.5 | 36.8 | 14.1 | 31.3 | 17.8 | + | + | IC50 ([1]; 24 h, approximate IC50, read-out: IC50 - 24 h Treatment, IMR-32): 0.6 µM; IC50 ([1]; 72 h, approximate IC50, read-out: IC50 - 72 h Treatment, IMR-32): 0.2 µM; IC50 [2, 7]: > 50 µM; IC50 [2, 8]: 1 µM; IC50 [4, 7]: 50 µM; IC50 [4, 8]: 0.9 µM; ≥ 30 Foci [%] ([6]; 2 µM): 0.7%; formation of nuclear γH2AX foci [6]: stimulate the formation of γH2AX foci only at a high dose of 50 µM |
| Nc1ccccc1NC(=O)c1ccc(CNC(=O)OCc2cccnc2)cc1 [Entinostat, entinostat, reference compound] |  | 34.5 | 37.8 | only promoted the formation of DNA strand breaks | − | only activated caspase-7 but not caspase-3 | 0 |  |  |  | 43.6 | 0.4 | 45.2 | 10.8 | 39.4 | 3.2 | 45.3 | 12.2 | + | + | IC50 ([1]; Homo sapiens, IMR-32, 24 h, approximate IC50, read-out: IC50 - 24 h Treatment, IMR-32): 50 µM; IC50 ([1]; Homo sapiens, IMR-32, 72 h, approximate IC50, read-out: IC50 - 72 h Treatment, IMR-32): 2 µM; IC50 [2, 9]: > 50 µM; IC50 [2, 10]: 9 µM; Mean (% DNA in tail) ([3]; 100 µM): 34.9 % DNA in tail; IC50 [4, 9]: > 50 µM; IC50 [4, 10]: 8 µM; > 5 < 30 Foci [%] ([6]; 100 µM): 47.2%; Pan-Stained [%] ([6]; 100 µM): 4.6%; ≤ 5 Foci [%] (cells with γH2AX foci) ([6]; 100 µM): 41.7%; ≥ 30 Foci [%] ([6]; 100 µM): 6.5%; formation of nuclear γH2AX foci [6]: relatively low number of γH2AX foci |
| O=C(CCCCCCC(=O)Nc1ccccc1)NO [Vorinostat, vorinostat, reference compound] | 14.0 | 8.0 | 13.2 | did not cause a significant rise in DNA damage | − | activation of caspase-3 and -7 | ++ | 54.7 | 0.0 | 39.3 | 18.5 | 3.2 | 75.9 | 2.4 | 34.2 | 26.7 | 23.6 | 15.6 | + | ++ | IC50 [4, 9]: 33 µM; ≥ 30 Foci [%] ([6]; 2 µM): 6.0% |
